Test results: ChEMBL document CHEMBL1147507, “Preliminary in vitro studies on two potent, water-soluble trimethoprim analogues with exceptional species selectivity against dihydrofolate reductase from Pneumocystis carinii and Mycobacterium avium” (Bioorg Med Chem Lett, 2004)

What was measured:
Dihydrofolate reductase [1] = target: T1, Dihydrofolate reductase (Rattus norvegicus, UniProt Q920D2)
T1 sequence (Q920D2 whole entry): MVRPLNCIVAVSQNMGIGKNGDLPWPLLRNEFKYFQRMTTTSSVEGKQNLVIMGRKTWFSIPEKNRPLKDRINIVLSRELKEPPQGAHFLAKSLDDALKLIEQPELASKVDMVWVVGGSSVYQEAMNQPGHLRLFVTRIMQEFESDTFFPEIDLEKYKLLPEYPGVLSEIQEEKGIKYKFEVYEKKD
Description: Inhibitory activity against rat dihydrofolate reductase

[2] = target: T2, Bifunctional dihydrofolate reductase-thymidylate synthase (Toxoplasma gondii, UniProt Q07422)
T2 sequence (Q07422 whole entry): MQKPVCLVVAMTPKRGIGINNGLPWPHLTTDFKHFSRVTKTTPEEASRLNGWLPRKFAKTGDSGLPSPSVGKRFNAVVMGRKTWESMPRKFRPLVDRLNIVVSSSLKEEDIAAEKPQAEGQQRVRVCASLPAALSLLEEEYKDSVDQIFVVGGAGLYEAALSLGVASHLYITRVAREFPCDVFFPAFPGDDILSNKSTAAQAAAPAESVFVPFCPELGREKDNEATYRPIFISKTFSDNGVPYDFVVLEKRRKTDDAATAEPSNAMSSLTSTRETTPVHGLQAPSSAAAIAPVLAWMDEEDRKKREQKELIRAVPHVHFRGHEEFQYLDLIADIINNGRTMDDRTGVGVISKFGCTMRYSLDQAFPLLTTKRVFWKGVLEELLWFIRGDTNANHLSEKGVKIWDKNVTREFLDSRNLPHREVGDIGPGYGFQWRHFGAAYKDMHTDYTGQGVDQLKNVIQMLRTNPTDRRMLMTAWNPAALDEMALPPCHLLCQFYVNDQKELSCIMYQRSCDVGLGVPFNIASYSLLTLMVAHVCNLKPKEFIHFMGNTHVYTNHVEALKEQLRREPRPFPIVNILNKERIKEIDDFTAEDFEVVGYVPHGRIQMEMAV
Description: Inhibitory concentration against Toxoplasma gondii dihydrofolate reductase

Dihydrofolate reductase [3] = target: T3, Dihydrofolate reductase (Pneumocystis carinii, UniProt P16184)
T3 sequence (P16184 whole entry): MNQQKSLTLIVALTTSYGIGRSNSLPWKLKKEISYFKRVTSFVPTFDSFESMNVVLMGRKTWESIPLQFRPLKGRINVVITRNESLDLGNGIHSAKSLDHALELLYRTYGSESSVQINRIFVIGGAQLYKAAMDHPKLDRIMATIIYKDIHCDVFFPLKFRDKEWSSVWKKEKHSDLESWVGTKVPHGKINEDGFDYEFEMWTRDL
Description: Inhibitory concentration against Pneumocystis carinii dihydrofolate reductase

Dihydrofolate reductase [4] = target: T4, Dihydrofolate reductase (Mycobacterium avium, UniProt O30463)
T4 sequence (O30463 whole entry): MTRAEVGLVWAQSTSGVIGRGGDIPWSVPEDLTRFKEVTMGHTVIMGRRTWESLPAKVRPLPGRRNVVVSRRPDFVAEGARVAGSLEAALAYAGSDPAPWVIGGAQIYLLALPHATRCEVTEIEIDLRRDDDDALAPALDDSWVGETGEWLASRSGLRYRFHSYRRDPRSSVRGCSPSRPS
Description: Inhibitory concentration against Mycobacterium avium dihydrofolate reductase

[5] = Selectivity index was determined as ratio of IC50 against rat DHFR to that of IC50 against Toxoplasma gondii DHFR
[6] = Selectivity index was determined as ratio of IC50 against rat DHFR to that of IC50 against Pneumocystis carinii DHFR
[7] = Selectivity index was determined as ratio of IC50 against rat DHFR to that of IC50 against Mycobacterium avium DHFR

Compound | IC50 (Dihydrofolate reductase [1]) | IC50 [2] | IC50 (Dihydrofolate reductase [3]) | IC50 (Dihydrofolate reductase [4]) | Ratio [5] | Ratio [6] | Ratio [7]
COc1cc(Cc2cnc(N)nc2N)cc(C#CCCCC(=O)O)c1OC | 5000 nM |  |  |  |  |  | 
COc1cc(Cc2cnc(N)nc2N)cc(C#Cc2ccc(C(=O)O)cc2)c1OC | 88000 nM | 420 nM | 1200 nM | 8.2 nM | 210 | 73 | 11000
COc1ccc(C#Cc2ccc(C(=O)O)cc2)cc1Cc1cnc(N)nc1N |  |  |  |  | 24 | 6.3 | 2200
